Where “and” joins values, the source holds several entries; their conditions need not be identical. Equal values may be shown once.
Experiments:
[1] = Reversibility of photoswitching over repeated irradiation cycles; type: physicochemical; conditions: CH2Cl2, alternating visible light irradiation
Excerpt: The photoisomerization of Compound 1 was studied extensively by UV/vis (FIG. 1) spectroscopy. When stored in the dark, Compound 1 adopts its thermodynamically stable trans form that has an absorption maximum (λmax) at 530 nm (ε=8026 M^−1 cm^−1). Upon irradiation at 570 nm, the cis form (λmax=480 nm; £=7792 M^−1 cm^−1) becomes dominant, accompanied by a sharp color change of the solution from bright purple to light orange. The process is also accompanied by changes in the intensity of bands at higher energies (λmax=340 and 264 nm). Irradiation at 450 nm drives the system back to its trans form. […] The trans/cis isomerization can be activated solely by the use of visible light and there is no need for UV light.
The synthesis of the azo-BF2 complex 10 started from the hydrazone-based switch,^18 followed by the coupling reaction with BF3.OEt2^19 (Scheme 7). The product was fully characterized using NMR spectroscopy and mass spectrometry (FIGS. 62-76). […] Upon irradiation with a 600 nm light source, E to Z isomerization takes place (isosbestic points at 318, 406, and 508 nm) leading to a new band with a λmax at 501 nm, and e of 11209 M^−1·cm^−1 (FIGS. 58 and 81). The isomerization is accompanied with a significant color change of the solution from purple to dark orange (FIG. 58b).

[2] = Isomer ratios under dark and at photostationary states by 1H NMR; type: physicochemical; conditions: for PSS isomer ratio, cis, irradiation at 710 nm (PSS710): lowest estimation because of fast thermal relaxation
Procedure: ^1H NMR spectroscopy was employed to evaluate the photo-switching efficiency of 10 in CD2Cl2 (0.53 mM).
[…] The LEDs were affixed in a custom irradiation chamber fitted with a cooling fan to maintain ambient temperature. The light intensities at 430 and 600 nm were determined using chemical actinometry^S1 and a Thorlabs optical power meter, respectively. Photoisomerization quantum yields were measured by monitoring the proton integral change in trans/cis isomers after 430 and 600 nm irradiation for 2 and 20 s, respectively. Each quantum yield measurement was repeated three times under the same conditions. The photostationary states (PSS) were determined upon continuous irradiation until no further isomerization was observed using ^1H NMR spectroscopy. PBS buffer is an aqueous solution prepared by dissolving Na2HPO4 (1.420 g), KH2PO4 (0.245 g) NaCl (8.007 g) and KCl (0.201 g) in 1 L deionized water.

[3] = Thermal cis→trans isomerization kinetics followed by UV/Vis in CH2Cl2; conditions: deoxygenated CH2Cl2, 294 K, starting from cis PSS, average of three measurements
Procedure: The thermal isomerization process was monitored by measuring the change in absorption intensity at 480 nm as a function of time (at 1 min intervals).
The thermal isomerization process was monitored by measuring the change in absorption intensity at 594 nm as a function of time (at 1 min intervals).

[4] = Thermal cis→trans relaxation followed by 1H NMR in CD2Cl2; type: physicochemical; conditions: CD2Cl2 at 294 K, starting from PSS710
Excerpt: Unaltered CD2Cl2 solution of compound 4 in a quartz NMR tube was irradiated at 710 nm until its photostationary state was reached.

[5] = Stability (hydrolysis) in acetonitrile:PBS buffer (1:1), followed by UV-Vis; type: physicochemical; conditions: acetonitrile:PBS (1:1), 25° C.
Procedure: (§1) The stability of the switches in an aqueous environment was tested by conducting multiple switching cycles (10 cycles shown in FIG. 22a) of 4 in an acetonitrile:PBS buffer (1:1) mixed solvent system. These experiments were conducted by irradiating the sample using 710 nm light, followed by thermal relaxation under dark. […] The stability of switch 4 to reduction by glutathione (GSH) was also tested. The switch was incubated in 10 mM reduced glutathione in acetonitrile:PBS buffer (1:1) solution.
All reagents and starting materials were purchased from commercial vendors and used without further purification. Column chromatography was performed on silica gel (Silicycle, 230-400 mesh). The melting points were measured on an Electrothermal 9100 instrument in open capillary tubes without thermometer correction. Deuterated solvents were purchased from Cambridge Isotope Laboratories and used as received. ^1H NMR and ^13C NMR spectra were recorded on a 500 MHz spectrometer, with working frequencies of 499.87 MHz for ^1H nuclei and 125.7 MHz for ^13C nuclei, respectively. ^19F NMR spectra were recorded on a 300 MHz spectrometer, with working frequency of 282.2 MHz for ^19F nuclei. Chemical shifts are expressed in ppm relative to tetramethylsilane, using the residual solvent peak as a reference standard. GC-MS spectra were measured on a Shimadzu Gas Chromatograph/Mass Spectrometer (GCMS-QP2010Plus). UV-Vis spectra were recorded on a Shimadzu UV-Vis spectrophotometer (UV-1800). Irradiation experiments were conducted with sufficient stirring using a Newport mercury lamp (67005-414) equipped with a Jarrell-Ash light monochromator. The 710 nm Near IR light source was built with appropriate LED light bulbs (LED710-lau AlGaAs Infrared LEDs purchased from Roithner Lasertechnik GmbH). PBS buffer is an aqueous solution prepared with 11.9 mM sodium phosphate (pH 7.3-7.4), 137 mM NaCl and 2.7 mM KCl.

[6] = Stability to reduction by glutathione, 10 mM GSH in acetonitrile:PBS buffer (1:1); type: physicochemical; conditions: for degradation half-life with GSH: acetonitrile:PBS (1:1) with 10 mM GSH, 25° C.
Procedure: as §1

| SMILES | reversibility / degradation on repeated photoisomerization (in words) [1] | trans isomer ratio under dark [2] [%] | PSS isomer ratio, cis, irradiation at 630 nm (PSS630) ([2]; CD2Cl2 at 294 K) | Half-life, cis→trans thermal relaxation [4] [h] | degradation (hydrolysis) half-life [5] [h] | degradation half-life with GSH [6] [h] | PSS isomer ratio, cis, irradiation at 710 nm (PSS710) ([2]; CD2Cl2 at 294 K) | PSS isomer ratio, trans, irradiation at 490 nm (PSS490) ([2]; CD2Cl2 at 294 K) | PSS isomer ratio, cis, irradiation at 640 nm (PSS640) ([2]; CD2Cl2 at 294 K) | half-life (t1/2) of the cis→trans isomerization [3] [h] | stability to reduction by glutathione (in words) ([6]; 10 mM reduced glutathione in acetonitrile:PBS buffer (1:1)) |
| --- | --- | --- | --- | --- | --- | --- | --- | --- | --- | --- | --- |
| N#CC1=C2C=Cc3ccccc3N2[B-](F)(F)[N+]1=Nc1ccccc1 [Compound 1] | no degradation |  |  |  |  |  |  |  |  |  |  |
| COc1ccc(N=[N+]2C(C#N)=C3C=Cc4ccccc4N3[B-]2(F)F)cc1 [Compound 2] |  | 93 | 96% and 96±1% |  |  |  |  | 92% and 92±1% |  |  |  |
| COc1ccc(N=[N+]2C(C#N)=C3C=Cc4ccccc4N3[B-]2(F)F)c(OC)c1 [Compound 3] |  | 58 |  |  |  |  |  | 56% and 56±1% | 79% and 79±1% | 13.4 |  |
| CN(C)c1ccc(N=[N+]2C(C#N)=C3C=Cc4ccccc4N3[B-]2(F)F)cc1 [Compound 4] |  | 97 |  | 0.0694 | 2.3 | 2.5 | 63% and 63±1% |  |  |  | No obvious difference was observed in its degradation half-life |

More lines, main results first:

| reversibility / degradation on repeated photoisomerization (in words) [1] | trans isomer ratio under dark [2] [%] | PSS isomer ratio, cis, irradiation at 630 nm (PSS630) ([2]; CD2Cl2 at 294 K) | Half-life, cis→trans thermal relaxation [4] [h] | degradation (hydrolysis) half-life [5] [h] | degradation half-life with GSH [6] [h] | PSS isomer ratio, cis, irradiation at 710 nm (PSS710) ([2]; CD2Cl2 at 294 K) | SMILES | PSS isomer ratio, trans, irradiation at 490 nm (PSS490) ([2]; CD2Cl2 at 294 K) | PSS isomer ratio, cis, irradiation at 640 nm (PSS640) ([2]; CD2Cl2 at 294 K) | half-life (t1/2) of the cis→trans isomerization [3] [h] | stability to reduction by glutathione (in words) ([6]; 10 mM reduced glutathione in acetonitrile:PBS buffer (1:1)) |
| --- | --- | --- | --- | --- | --- | --- | --- | --- | --- | --- | --- |
|  | 98 |  | 0.0417 | 2 | 2.1 |  | N#CC1=C2C=Cc3ccccc3N2[B-](F)(F)[N+]1=Nc1ccc(N2CCCCC2)cc1 [Compound 5] |  |  |  |  |
|  | 94 |  | 0.111 | 1.2 | 1.3 | 49% and 49±1% | CN1CCN(c2ccc(N=[N+]3C(C#N)=C4C=Cc5ccccc5N4[B-]3(F)F)cc2)CC1 [Compound 6] |  |  |  |  |
|  | 97 |  | 0.25 | 0.9 | 1.0 | 83% and 82±1% | N#CC1=C2C=Cc3ccccc3N2[B-](F)(F)[N+]1=Nc1ccc(N2CCOCC2)cc1 [Compound 7] |  |  |  |  |

Reference: patent publication US10239893B2, “Controlling the isomerization rate of Azo-BF2 switches using aggregation” (THE TRUSTEES OF DARTMOUTH COLLEGE, priority 2013, dated 2019)
